Data on 32 compounds can be found in patent publication US12559495B2 (Agency for Science, Technology and Research, priority 2013, dated 2026).

A value given as a limit tells only on which side of the number the result lay.

For this assay, the system named is HEK293-STF3A cells. Description: STF3A assay (luciferase reporter). In kind it is cell-based. As to conditions: Homo sapiens, 24 h, 1 day of treatment. On the procedure: HEK293-STF cell line was modified from Human embryonic kidney cell line HEK293 transfected with the STF reporter. HEK293-STF3A cell line was further modified from HEK293-STF cell line to express Wnt3A. This cell line was used to identify compounds that regulate either early or late signalling components of the Wnt pathway. L-Wnt3A (ATCC, #CRL-2647) cell line was used for providing Wnt3A conditioned media. The three cell lines were grown in DMEM (Dulbecco's Modified Eagle Medium) with 10% FBS (fetal bovine serum) incubated in 37° C. with 5% CO2. 2×10^4 HEK293-STF3A cells in 75 μl culture media were seeded in each well of white 96 well plates (Greiner #655098) and incubated overnight at 37° C. 25 μl serially diluted compound was added to the cells to give final concentration of 50 μM to 1.5 nM. After 1 day of treatment, 100 μl of Steady-Glo® Luciferase Assay reagent (#E2520, Promega) was added to each well and incubated for 10 minutes at room temperature. Luminescence was measured using Tecan Safire2® plate reader.
Background: A reporter such as luciferase makes a cellular process visible.
In turn, `Cn1c(=O)c2c(ncn2CC(=O)Nc2ccc(N3CCN(Cc4cc(F)cc(F)c4)CC3)cn2)n(C)c1=O` [Compound 54, N-(5-(4-(3,5-difluorobenzyl)piperazin-1-yl)pyridin-2-yl)-2-(1,3-dimethyl-2,6-dioxo-2,3-dihydro-1H-purin-7(6H)-yl)acetamide] yielded a half-inhibitory concentration (IC50) below 100 nM.

Take `Cn1c(=O)c2c(ncn2CC(=O)Nc2ccc(-c3ccccc3)s2)n(C)c1=O` [Compound 2, 2-(1,3-dimethyl-2,6-dioxo-2,3-dihydro-1H-purin-7(6H)-yl)-N-(5-phenylthiophen-2-yl)acetamide]: the IC50 is below 100 nM.

The compound `Cn1c(=O)c2c(ncn2CC(=O)Nc2ccc(N3CCN(Cc4cccc(Cl)c4)CC3)cn2)n(C)c1=O` [Compound 21, N-(5-(4-(3-chlorobenzyl)piperazin-1-yl)pyridin-2-yl)-2-(1,3-dimethyl-2,6-dioxo-2,3-dihydro-1H-purin-7(6H)-yl)acetamide] registered an IC50 below 100 nM.

Compound `Cn1c(=O)c2c(ncn2CC(=O)Nc2ccc(N3CCN(C(=O)CC(C)(C)C)CC3)cn2)n(C)c1=O` [Compound 47, 2-(1,3-dimethyl-2,6-dioxo-2,3-dihydro-1H-purin-7(6H)-yl)-N-(5-(4-(3,3-dimethylbutanoyl)piperazin-1-yl)pyridin-2-yl)acetamide] gave an IC50 below 1000 nM.

For `Cn1c(=O)c2c(ncn2CC(=O)Nc2ccc(-c3cncs3)cc2)n(C)c1=O` [Compound 1, 2-(1,3-dimethyl-2,6-dioxo-2,3-dihydro-1H-purin-7(6H)-yl)-N-(4-(thiazol-5-yl)phenyl)acetamide], the IC50 was below 100 nM.

In the case of `Cn1c(=O)c2c(ncn2CCC(=O)Nc2ccc(-c3cccs3)cc2)n(C)c1=O` [Compound 90, 3-(1,3-dimethyl-2,6-dioxo-1,2,3,6-tetrahydro-7H-purin-7-yl)-N-(4-(thiophen-2-yl)phenyl)propanamide], the IC50 is below 100 nM.

In turn, `Cn1c(=O)c2c(ncn2CC(=O)Nc2ccc(-c3ccncc3)nn2)n(C)c1=O` [Compound 12, 2-(1,3-dimethyl-2,6-dioxo-2,3-dihydro-1H-purin-7(6H)-yl)-N-(6-(pyridin-4-yl)pyridazin-3-yl)acetamide] showed an IC50 below 5000 nM.

`Cn1c(=O)c2c(ncn2CC(=O)Nc2ccc(N3CCN(Cc4ccccc4F)CC3)cn2)n(C)c1=O` [Compound 55, 2-(1,3-dimethyl-2,6-dioxo-2,3-dihydro-1H-purin-7(6H)-yl)-N-(5-(4-(2-fluorobenzyl)piperazin-1-yl)pyridin-2-yl)acetamide] gave an IC50 below 5000 nM.

`Cn1c(=O)c2c(ncn2CC(=O)Nc2ccc(-c3ccncc3)cc2)n(C)c1=O` [Compound 10, 2-(1,3-dimethyl-2,6-dioxo-2,3-dihydro-1H-purin-7(6H)-yl)-N-(4-(pyridin-4-yl)phenyl)acetamide]: the IC50 was below 1000 nM.

In the case of `CC(C(=O)Nc1ccc(N2CCN(Cc3cc(F)cc(F)c3)CC2)cc1)n1cnc2c1c(=O)n(C)c(=O)n2C` (centres unmarked) [Compound 63, N-(4-(4-(3,5-difluorobenzyl)piperazin-1-yl)phenyl)-2-(1,3-dimethyl-2,6-dioxo-2,3-dihydro-1H-purin-7(6H)-yl)propanamide], the IC50 is below 1000 nM.

`Cn1c(=O)c2c(ncn2CC(=O)Nc2ccc(-c3ccc(F)cc3)nn2)n(C)c1=O` [Compound 11, 2-(1,3-dimethyl-2,6-dioxo-2,3-dihydro-1H-purin-7(6H)-yl)-N-(6-(4-fluorophenyl)pyridazin-3-yl)acetamide] showed an IC50 below 100 nM.

As to `COc1ccccc1-c1ccc(NC(=O)Cn2cnc3c2c(=O)n(C)c(=O)n3C)cc1` [Compound 27, 2-(1,3-dimethyl-2,6-dioxo-2,3-dihydro-1H-purin-7(6H)-yl)-N-(2′-methoxybiphenyl-4-yl)acetamide], the IC50 was above 10000 nM.

Regarding `Cc1nc2c(c(=O)n(C)c(=O)n2C)n1[C@@H](C)C(=O)Nc1ccc(-c2nccs2)cc1` [Compound 67, (S)—N-(4-(thiazol-2-yl)phenyl)-2-(1,3,8-trimethyl-2,6-dioxo-2,3-dihydro-1H-purin-7(6H)-yl)propanamide], the IC50 was below 1000 nM.

As to `Cn1c(=O)c2c(ncn2CC(=O)Nc2ccc(-c3ccc(F)cc3)cn2)n(C)c1=O` [Compound 37, 2-(1,3-dimethyl-2,6-dioxo-2,3-dihydro-1H-purin-7(6H)-yl)-N-(5-(4-fluorophenyl)pyridin-2-yl)acetamide], the IC50 is below 100 nM.

Compound `Cn1c(=O)c2c(ncn2CCC(=O)Nc2ccc(-c3ccsc3)cc2)n(C)c1=O` [Compound 87, 3-(1,3-dimethyl-2,6-dioxo-1,2,3,6-tetrahydro-7H-purin-7-yl)-N-(4-(thiophen-3-yl)phenyl)propanamide] registered an IC50 below 100 nM.

The compound `Cn1c(=O)c2c(ncn2CC(=O)Nc2ccc(N3CCN(C(=O)OC(C)(C)C)CC3)cc2)n(C)c1=O` [Compound 22, tert-butyl 4-(4-(2-(1,3-dimethyl-2,6-dioxo-2,3-dihydro-1H-purin-7(6H)-yl)acetamido)phenyl)piperazine-1-carboxylate] showed an IC50 below 100 nM.

Regarding `Cn1c(=O)c2c(ncn2CCCC(=O)Nc2ccc(-c3ccsc3)cc2)n(C)c1=O` [Compound 88, 4-(1,3-dimethyl-2,6-dioxo-1,2,3,6-tetrahydro-7H-purin-7-yl)-N-(4-(thiophen-3-yl)phenyl)butanamide], the IC50 was below 100 nM.

The compound `CCC(C(=O)Nc1ccc(-c2ccsc2)cc1)n1cnc2c1c(=O)n(C)c(=O)n2C` (centres unmarked) [Compound 64, 2-(1,3-dimethyl-2,6-dioxo-2,3-dihydro-1H-purin-7(6H)-yl)-N-(4-(thiophen-3-yl)phenyl)butanamide] displayed an IC50 below 100 nM.

The compound `Cc1nc(-c2ccc(NC(=O)Cn3cnc4c3c(=O)n(C)c(=O)n4C)cc2)cs1` [Compound 33, 2-(1,3-dimethyl-2,6-dioxo-2,3-dihydro-1H-purin-7(6H)-yl)-N-(4-(2-methylthiazol-4-yl)phenyl)acetamide] had a 50% inhibitory concentration (IC50) below 100 nM.

On to `Cc1cc(-c2ccccc2)ccc1NC(=O)Cn1cnc2c1c(=O)n(C)c(=O)n2C` [Compound 13, 2-(1,3-dimethyl-2,6-dioxo-2,3-dihydro-1H-purin-7(6H)-yl)-N-(3-methylbiphenyl-4-yl)acetamide], for which the IC50 is above 10000 nM.

Consider `Cn1c(=O)c2c(ncn2CC(=O)Nc2ccc(-c3ccccc3)nc2)n(C)c1=O` [Compound 35, 2-(1,3-dimethyl-2,6-dioxo-2,3-dihydro-1H-purin-7(6H)-yl)-N-(6-phenylpyridin-3-yl)acetamide], for which the IC50 was below 100 nM.

Take `Cn1c(=O)c2c(ncn2CCCC(=O)Nc2ccc(-c3nccs3)cc2)n(C)c1=O` [Compound 94, 4-(1,3-dimethyl-2,6-dioxo-1,2,3,6-tetrahydro-7H-purin-7-yl)-N-(4-(thiazol-2-yl)phenyl)butanamide]: the IC50 was below 1000 nM.

As to `Cn1c(=O)c2c(ncn2CC(=O)Nc2ccc(N3CCN(Cc4ccccc4)CC3)cn2)n(C)c1=O` [Compound 53, N-(5-(4-benzylpiperazin-1-yl)pyridin-2-yl)-2-(1,3-dimethyl-2,6-dioxo-2,3-dihydro-1H-purin-7(6H)-yl)acetamide], the IC50 was below 100 nM.

`Cn1c(=O)c2c(ncn2CC(=O)Nc2ccc(-c3ccsc3)cc2)n(C)c1=O` [Compound 18, 2-(1,3-dimethyl-2,6-dioxo-2,3-dihydro-1H-purin-7(6H)-yl)-N-(4-(thiophen-3-yl)phenyl)acetamide] gave an IC50 below 100 nM.

`CCn1c(=O)c2c(ncn2CC(=O)Nc2ccc(-c3ccsc3)cc2)n(CC)c1=O` [Compound 72, 2-(1,3-diethyl-2,6-dioxo-2,3-dihydro-1H-purin-7(6H)-yl)-N-(4-(thiophen-3-yl)phenyl)acetamide] gave an IC50 below 100 nM.

`C[C@H](C(=O)Nc1ccc(-c2ccsc2)cc1)n1cnc2c1c(=O)n(C)c(=O)n2C` [Compound 58, (R)-2-(1,3-dimethyl-2,6-dioxo-2,3-dihydro-1H-purin-7(6H)-yl)-N-(4-(thiophen-3-yl)phenyl)propanamide] displayed an IC50 above 10000 nM.

`CC(=O)N1CCN(c2ccc(NC(=O)Cn3cnc4c3c(=O)n(C)c(=O)n4C)nc2)CC1` [Compound 48] yielded an IC50 below 1000 nM.

In the case of `Cn1c(=O)c2c(nc(N3CCOCC3)n2CC(=O)Nc2ccc(-c3ccsc3)cc2)n(C)c1=O` [Compound 74, 2-(1,3-dimethyl-8-morpholino-2,6-dioxo-2,3-dihydro-1H-purin-7(6H)-yl)-N-(4-(thiophen-3-yl)phenyl)acetamide], the IC50 was below 1000 nM.

Compound `C[C@@H]1CN(C(=O)OC(C)(C)C)CCN1c1ccc(NC(=O)Cn2cnc3c2c(=O)n(C)c(=O)n3C)cc1` [Compound 16, (R)-tert-butyl 4-(4-(2-(1,3-dimethyl-2,6-dioxo-2,3-dihydro-1H-purin-7(6H)-yl)acetamido)phenyl)-3-methylpiperazine-1-carboxylate] gave an IC50 below 1000 nM.

With `Cn1c(=O)c2c(ncn2CC(=O)Nc2cnc(-c3ccccc3)cn2)n(C)c1=O` [Compound 36, 2-(1,3-dimethyl-2,6-dioxo-2,3-dihydro-1H-purin-7(6H)-yl)-N-(5-phenylpyrazin-2-yl)acetamide], the IC50 was below 100 nM.

Take `C[C@@H](C(=O)Nc1ccc(-c2nccs2)cn1)n1cnc2c1c(=O)n(C)c(=O)n2C` [Compound 84, (S)-2-(1,3-dimethyl-2,6-dioxo-1,2,3,6-tetrahydro-7H-purin-7-yl)-N-(5-(thiazol-2-yl)pyridin-2-yl)propanamide]: the IC50 is below 100 nM.

`Cn1c(=O)c2c(ncn2CC(=O)Nc2ccc(-c3ccc(OC(F)(F)F)cc3)cc2)n(C)c1=O` [Compound 31, 2-(1,3-dimethyl-2,6-dioxo-2,3-dihydro-1H-purin-7(6H)-yl)-N-(4′-(trifluoromethoxy)biphenyl-4-yl)acetamide] gave a concentration for half-maximal inhibition (IC50) below 5000 nM.

The IC50 is the midpoint of a concentration-inhibition curve. Higher therefore signals lower potency.
